These results are taken from patent US20050256003A1, “Novel herbicides” (priority 2002, published 2005).

Format in all cases: in vivo
The subject of one assay is selected test plants. The assay can be described thus: Post-emergence action in a different test arrangement (Table B3). The note with it: 250 g a.i./ha. More on the design: key to Post-emergence action (different test arrangement), Nasturtium / Post-emergence action (different test arrangement), Stellaria / Post-emergence action (different test arrangement), Solanum: 10=total damage; 0=no action; Ratings of from 10 to 7 (especially from 10 to 8) indicate good to very good herbicidal action.

For assay [1], the system named is monocotyledonous and dicotyledonous test plants. The assay can be described thus: Herbicidal action prior to emergence of the plants (pre-emergence action). More on the design: key: 10=total damage; 0=no action; Ratings of from 10 to 7 (especially from 10 to 8) indicate good to very good herbicidal action. The note with it: 250 g a.i./ha, pre-emergence spray, evaluated after 3 weeks, scale 10=total damage, 0=no action. An excerpt:
Herbicidal Action Prior to Emergence of the Plants (Pre-Emergence Action)
Monocotyledonous and dicotyledonous test plants are sown in standard soil in plastic pots Immediately after sowing, the test compounds, in the form of an aqueous suspension (prepared from a 25% wettable powder (Example F3, b) according to WO 97/34485) or in the form of an emulsion (prepared from a 25% emulsifiable concentrate (Example F1, c)), are applied by spraying in a concentration corresponding to 125 g or 250 g of active ingredient/ha (500 litres of water/ha). The test plants are then grown in a greenhouse under optimum conditions. After a test duration of 3 weeks, the test is evaluated in accordance with a scale of nine ratings (10=total damage, 0=no action). Ratings of from 10 to 7 (especially from 10 to 8) indicate good to very good herbicidal action.

Assay [2] shares this test system. The assay can be described thus: Post-emergence herbicidal action. More on the design: key: 10=total damage; 0=no action; Ratings of from 10 to 7 (especially from 10 to 8) indicate good to very good herbicidal action. The note with it: 250 g a.i./ha, about 18 days, rating 0-10. In short, it runs like this: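 Plants at the 4- to 6-leaf stage in greenhouse soil sprayed with a suspension from a 25% wettable powder or an emulsion from a 25% emulsifiable concentrate at 125 g or 250 g a.i./ha (500 litres water/ha). Damage rated after about 18 days on a […] scale (10=total damage, 0=no action).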

On to `O=C1CCCC(O)=C1C(=O)c1ccc(C(F)(F)F)nc1CN1CN(c2ccc(Cl)cc2)CC1=O` [Compound A1.237], for which, in the assay with selected test plants, the “Post-emergence action (different test arrangement), Amaranthus” value is 9; the “Post-emergence action (different test arrangement), Nasturtium” value was 9; the “Post-emergence action (different test arrangement), Solanum” value is 10; the “Post-emergence action (different test arrangement), Stellaria” value was 7.
Take `O=C1CCCC(O)=C1C(=O)c1ccc(C(F)(F)F)nc1CN1CCC1=O` [Compound A1.221]: in the assay with selected test plants, the “Post-emergence action (different test arrangement), Amaranthus” value is 9; the “Post-emergence action (different test arrangement), Nasturtium” value worked out at 10; the “Post-emergence action (different test arrangement), Solanum” value is 9; the “Post-emergence action (different test arrangement), Stellaria” value came out at 9.
As to `Cc1nc(C)n(Cc2nc(C(F)(F)F)ccc2C(=O)C2=C(O)CCCC2=O)c(=O)c1Cl` [Compound A1.209], in the assay on selected test plants, the “Post-emergence action (different test arrangement), Amaranthus” value turned out to be 7; the “Post-emergence action (different test arrangement), Nasturtium” value was found to be 9; the “Post-emergence action (different test arrangement), Solanum” value is recorded as 9; the “Post-emergence action (different test arrangement), Stellaria” value worked out at 7.
In the case of `O=C1CCCC(O)=C1C(=O)c1ccc(C(F)(F)F)nc1CN1CCCC1=O` [Compound A1.219], in the assay on selected test plants, the “Post-emergence action (different test arrangement), Amaranthus” value came to 9; the “Post-emergence action (different test arrangement), Nasturtium” value was determined as 10; the “Post-emergence action (different test arrangement), Solanum” value was found to be 9; the “Post-emergence action (different test arrangement), Stellaria” value is 10.
Consider `Cc1nn(Cc2nc(C(F)(F)F)ccc2C(=O)C2=C(O)CCCC2=O)c(=O)o1` [Compound A1.097, 3-[3-(2-Hydroxy-6-oxo-cyclohex-1-enecarbonyl)-6-trifluoromethyl-pyridin-2-ylmethyl]-5-methyl-3H-[1.3.4]oxadiazol-2-one], for which, in the assay with selected test plants, the “Post-emergence action (different test arrangement), Amaranthus” value is 9; the “Post-emergence action (different test arrangement), Nasturtium” value came to 10; the “Post-emergence action (different test arrangement), Solanum” value is 9; the “Post-emergence action (different test arrangement), Stellaria” value is recorded as 9.
Regarding `CC1CCN(Cc2nc(C(F)(F)F)ccc2C(=O)C2=C(O)CCCC2=O)C1=O` (stereo not shown) [Compound A1.222], in the assay on selected test plants, the “Post-emergence action (different test arrangement), Amaranthus” value amounted to 9; the “Post-emergence action (different test arrangement), Nasturtium” value worked out at 10; the “Post-emergence action (different test arrangement), Solanum” value was determined as 9; the “Post-emergence action (different test arrangement), Stellaria” value came out at 9.
Regarding `CC1CCC(=O)N1Cc1nc(C(F)(F)F)ccc1C(=O)C1=C(O)CCCC1=O` (stereo not shown) [Compound A1.223], in the assay on selected test plants, the “Post-emergence action (different test arrangement), Amaranthus” value was found to be 8; the “Post-emergence action (different test arrangement), Nasturtium” value came to 10; the “Post-emergence action (different test arrangement), Solanum” value was 9; the “Post-emergence action (different test arrangement), Stellaria” value was 9.
In the case of `Cn1ncc(C(=O)c2ccc(C(F)(F)F)nc2CN2CN(c3ccc(Cl)cc3)CC2=O)c1O` [Compound B1.238], in the assay with selected test plants, the “Post-emergence action (different test arrangement), Amaranthus” value was determined as 9; the “Post-emergence action (different test arrangement), Nasturtium” value was 8; the “Post-emergence action (different test arrangement), Solanum” value was determined as 9; the “Post-emergence action (different test arrangement), Stellaria” value was determined as 7.
As for `Cn1ncc(C(=O)c2ccc(C(F)(F)F)nc2CN2CCCC2=O)c1O` [Compound B1.223], in the assay on selected test plants, the “Post-emergence action (different test arrangement), Amaranthus” value amounted to 8; the “Post-emergence action (different test arrangement), Nasturtium” value is given as 10; the “Post-emergence action (different test arrangement), Solanum” value is listed as 9; the “Post-emergence action (different test arrangement), Stellaria” value is given as 10.
Consider `CN1CCN(Cc2nc(C(F)(F)F)ccc2C(=O)C2=C(O)CCCC2=O)C1=O` [Compound A1.213], for which, in the assay with selected test plants, the “Post-emergence action (different test arrangement), Amaranthus” value was 9; the “Post-emergence action (different test arrangement), Nasturtium” value is recorded as 9; the “Post-emergence action (different test arrangement), Solanum” value is reported as 9; the “Post-emergence action (different test arrangement), Stellaria” value was 9.
Consider `CC1CCN(Cc2nc(C(F)(F)F)ccc2C(=O)c2cnn(C)c2O)C1=O` (stereo not shown) [Compound B1.226], for which, in the assay with selected test plants, the “Post-emergence action (different test arrangement), Amaranthus” value came out at 8; the “Post-emergence action (different test arrangement), Nasturtium” value turned out to be 10; the “Post-emergence action (different test arrangement), Solanum” value was 9; the “Post-emergence action (different test arrangement), Stellaria” value was determined as 9.
Take `Cn1c(=O)n(Cc2nc(C(F)(F)F)ccc2C(=O)C2=C(O)CCCC2=O)c(=O)n1C` [Compound A1.211]: in the assay with selected test plants, the “Post-emergence action (different test arrangement), Amaranthus” value amounted to 9; the “Post-emergence action (different test arrangement), Nasturtium” value was 10; the “Post-emergence action (different test arrangement), Solanum” value is given as 9; the “Post-emergence action (different test arrangement), Stellaria” value came out at 7.
`CN1CCN(Cc2nc(C(F)(F)F)ccc2C(=O)c2cnn(C)c2O)C1=O` [Compound B1.211]: in the assay with selected test plants, the “Post-emergence action (different test arrangement), Amaranthus” value was determined as 9; the “Post-emergence action (different test arrangement), Nasturtium” value is on record as 10; the “Post-emergence action (different test arrangement), Solanum” value worked out at 9; the “Post-emergence action (different test arrangement), Stellaria” value was found to be 8.
With `CC(C)N1CC(=O)N(Cc2nc(C(F)(F)F)ccc2C(=O)C2=C(O)CCCC2=O)C1=O` [Compound A1.175], in the assay with selected test plants, the “Post-emergence action (different test arrangement), Amaranthus” value came out at 7; the “Post-emergence action (different test arrangement), Nasturtium” value worked out at 8; the “Post-emergence action (different test arrangement), Solanum” value is given as 9; the “Post-emergence action (different test arrangement), Stellaria” value was found to be 7.
For the compound `COc1nn(Cc2nc(C(F)(F)F)ccc2C(=O)C2=C(O)CCCC2=O)c(=O)n1C` [Compound A1.025], in the assay with selected test plants, the “Post-emergence action (different test arrangement), Amaranthus” value was found to be 9; the “Post-emergence action (different test arrangement), Nasturtium” value was 9; the “Post-emergence action (different test arrangement), Solanum” value is listed as 9; the “Post-emergence action (different test arrangement), Stellaria” value is on record as 9.
Regarding `Cc1nn(Cc2nc(C(F)(F)F)ccc2C(=O)C2=C(O)C(C)(C)C(=O)C(C)(C)C2=O)c(=O)o1` [Compound A8.008], in assay [1], the “Pre-emergence action: Abutilon (rating)” value amounted to 10, the “Pre-emergence action: Chenopodium (rating)” value is 10, the “Pre-emergence action: Cyperus (rating)” value was 0 and the “Pre-emergence action: Panicum (rating)” value is 10. Also, in assay [1], the “Pre-emergence action: Scirpus (rating)” value came to 0 and the “Pre-emergence action: Sida (rating)” value was found to be 10. Also, the “Pre-emergence action: Echinochloa (rating)” value in assay [1] (Echinochloa) is listed as 10. In addition, in assay [2], the “Post-emergence action, Amaranthus” value is given as 9; the “Post-emergence action, Chenopodium” value is 8; the “Post-emergence action, Echinochloa” value came out at 8; the “Post-emergence action, Euphorbia” value is listed as 8. Also, in assay [2], the “Post-emergence action, Ipomea” value was determined as 9; the “Post-emergence action, Sinapis” value is listed as 7; the “Post-emergence action, Stellaria” value turned out to be 6; the “Post-emergence action, Xanthium” value is recorded as 9.
Consider `COc1nn(Cc2nc(C(F)(F)F)ccc2C(=O)c2cnn(C)c2O)c(=O)s1` [Compound B1.096], for which, in assay [1], the “Pre-emergence action: Abutilon (rating)” value is 10, the “Pre-emergence action: Chenopodium (rating)” value is on record as 10, the “Pre-emergence action: Cyperus (rating)” value is reported as 7 and the “Pre-emergence action: Panicum (rating)” value is reported as 7. In addition, in assay [1], the “Pre-emergence action: Scirpus (rating)” value was 7 and the “Pre-emergence action: Sida (rating)” value worked out at 7. For the same compound, the “Pre-emergence action: Amaranthus (rating)” value in assay [1] (Amaranthus) was determined as 10. Further, in assay [2], the “Post-emergence action, Amaranthus” value was 7; the “Post-emergence action, Chenopodium” value was 10; the “Post-emergence action, Echinochloa” value was found to be 6; the “Post-emergence action, Euphorbia” value came to 7. Moreover, in assay [2], the “Post-emergence action, Ipomea” value is reported as 7; the “Post-emergence action, Sinapis” value was found to be 9; the “Post-emergence action, Stellaria” value came out at 8; the “Post-emergence action, Xanthium” value was 8.
Consider `Cn1ncc(C(=O)c2ccc(C(F)(F)F)nc2CN2CCC2=O)c1O` [Compound B1.225], for which, in the assay on selected test plants, the “Post-emergence action (different test arrangement), Amaranthus” value was found to be 8; the “Post-emergence action (different test arrangement), Nasturtium” value is recorded as 10; the “Post-emergence action (different test arrangement), Solanum” value is reported as 9; the “Post-emergence action (different test arrangement), Stellaria” value amounted to 10.
